This is an account of results in US8815882B2, “Pyrazole aminopyrimidine derivatives as LRRK2 modulators” (Genentech, Inc., priority 2010, dated 2014).

pKi: −log10 of the molar value.

In general, pKi refers to −log10 of the Ki, conventionally taken in molar units.

T1 sequence (Q5S007 whole entry G2019S): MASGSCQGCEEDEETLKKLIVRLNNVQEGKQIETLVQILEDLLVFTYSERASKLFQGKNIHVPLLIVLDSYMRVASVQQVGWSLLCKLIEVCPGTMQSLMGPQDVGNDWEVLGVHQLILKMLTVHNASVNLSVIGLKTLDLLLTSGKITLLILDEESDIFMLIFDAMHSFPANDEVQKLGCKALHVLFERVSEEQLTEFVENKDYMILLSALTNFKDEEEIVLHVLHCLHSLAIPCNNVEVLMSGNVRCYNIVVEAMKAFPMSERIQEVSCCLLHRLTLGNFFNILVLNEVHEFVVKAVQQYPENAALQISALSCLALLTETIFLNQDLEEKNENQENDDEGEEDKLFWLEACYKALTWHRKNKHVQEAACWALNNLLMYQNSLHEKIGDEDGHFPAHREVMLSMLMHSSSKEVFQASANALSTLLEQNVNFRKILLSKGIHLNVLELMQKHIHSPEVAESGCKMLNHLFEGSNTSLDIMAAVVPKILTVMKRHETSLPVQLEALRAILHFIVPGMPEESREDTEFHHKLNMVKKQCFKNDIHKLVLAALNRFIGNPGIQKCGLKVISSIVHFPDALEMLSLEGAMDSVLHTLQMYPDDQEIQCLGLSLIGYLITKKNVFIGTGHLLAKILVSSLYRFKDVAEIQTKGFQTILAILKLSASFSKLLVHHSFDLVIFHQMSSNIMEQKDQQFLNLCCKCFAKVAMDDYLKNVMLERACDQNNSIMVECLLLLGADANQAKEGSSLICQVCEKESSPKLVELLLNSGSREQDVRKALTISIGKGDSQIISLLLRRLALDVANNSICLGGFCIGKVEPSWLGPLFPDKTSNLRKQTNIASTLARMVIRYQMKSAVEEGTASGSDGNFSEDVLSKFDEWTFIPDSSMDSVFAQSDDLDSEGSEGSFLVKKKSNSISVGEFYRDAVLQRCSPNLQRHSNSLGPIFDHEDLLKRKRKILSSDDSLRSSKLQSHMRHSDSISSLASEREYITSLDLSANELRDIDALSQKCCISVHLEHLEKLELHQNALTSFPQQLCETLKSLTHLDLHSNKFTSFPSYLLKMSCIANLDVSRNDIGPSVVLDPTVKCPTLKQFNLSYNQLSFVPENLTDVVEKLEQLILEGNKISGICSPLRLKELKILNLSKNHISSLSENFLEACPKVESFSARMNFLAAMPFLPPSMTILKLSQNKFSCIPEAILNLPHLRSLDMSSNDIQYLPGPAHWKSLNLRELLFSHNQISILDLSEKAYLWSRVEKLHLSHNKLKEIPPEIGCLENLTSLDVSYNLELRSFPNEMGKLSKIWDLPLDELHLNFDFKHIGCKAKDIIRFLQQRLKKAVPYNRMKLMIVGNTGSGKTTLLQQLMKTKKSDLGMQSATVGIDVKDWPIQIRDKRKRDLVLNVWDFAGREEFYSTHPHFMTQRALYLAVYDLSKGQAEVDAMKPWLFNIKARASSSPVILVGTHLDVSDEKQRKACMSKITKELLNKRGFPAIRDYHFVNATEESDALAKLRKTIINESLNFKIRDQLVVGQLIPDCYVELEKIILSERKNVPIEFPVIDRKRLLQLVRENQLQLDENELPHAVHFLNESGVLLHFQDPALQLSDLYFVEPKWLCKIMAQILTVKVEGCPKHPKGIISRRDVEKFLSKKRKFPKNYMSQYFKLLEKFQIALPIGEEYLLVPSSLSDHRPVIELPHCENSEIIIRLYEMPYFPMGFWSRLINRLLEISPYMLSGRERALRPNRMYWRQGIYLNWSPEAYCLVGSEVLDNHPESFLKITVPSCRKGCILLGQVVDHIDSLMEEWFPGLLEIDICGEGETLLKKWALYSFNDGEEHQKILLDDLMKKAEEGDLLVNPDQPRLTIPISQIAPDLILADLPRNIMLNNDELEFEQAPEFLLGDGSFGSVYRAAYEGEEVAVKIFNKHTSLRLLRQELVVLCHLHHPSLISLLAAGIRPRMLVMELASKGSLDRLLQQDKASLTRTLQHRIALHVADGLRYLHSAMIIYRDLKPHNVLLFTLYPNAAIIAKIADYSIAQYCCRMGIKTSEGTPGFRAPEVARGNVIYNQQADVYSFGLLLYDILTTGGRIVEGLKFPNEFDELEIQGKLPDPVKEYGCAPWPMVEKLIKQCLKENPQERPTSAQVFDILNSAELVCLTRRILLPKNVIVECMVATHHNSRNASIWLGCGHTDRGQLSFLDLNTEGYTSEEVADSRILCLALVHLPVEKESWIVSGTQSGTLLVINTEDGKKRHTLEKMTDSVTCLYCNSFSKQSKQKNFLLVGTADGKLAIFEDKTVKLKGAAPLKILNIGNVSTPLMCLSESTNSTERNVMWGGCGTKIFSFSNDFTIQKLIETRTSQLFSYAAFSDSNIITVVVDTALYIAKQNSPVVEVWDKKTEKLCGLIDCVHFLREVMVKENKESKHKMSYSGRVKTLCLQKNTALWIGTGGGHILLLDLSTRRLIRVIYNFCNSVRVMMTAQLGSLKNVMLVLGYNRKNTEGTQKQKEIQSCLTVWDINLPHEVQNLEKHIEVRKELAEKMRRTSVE

The first assay has as its target T1, LRRK2 (Homo sapiens, UniProt Q5S007, G2019S).
T1 construct: purchased Invitrogen PV4882 (lot 567054A)
Briefly: In Vitro LRRK2 Assay (LabChip 3000, fluorescently-labeled peptide substrate, ATP). Type of assay: biochemical. To be noted: Table 9; LRRK2 Ki (micromolar); read-out: LRRK2 Ki (KI). A digest of the protocol:
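Read-out was LabChip capillary electrophoresis, resolving phospho- from non-phospho-peptide by fluorescence intensity. The kinase reaction combined enzyme, ATP, test compound and labeled peptide (4 μM working dilution) for 2 h in darkness before stop solution. Values were reported as Ki, from a tight-binding model with Et, S and Km, or as IC50 or percent inhibition.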
For the compound `COc1nc(Nc2cnn(C)c2C)ncc1C#N` [Example 375, 2-(1,5-dimethyl-1H-pyrazol-4-ylamino)-4-methoxy-pyrimidine-5-carbonitrile], the pKi was 6.84. Still for that read-out and setting: the value for `Cc1nn(C2COC2)cc1Nc1ncc(C#N)c(NCC(F)(F)F)n1` [Example 382, 2-(3-methyl-1-(oxetan-3-yl)-1H-pyrazol-4-ylamino)-4-(2,2,2-trifluoroethylamino) pyrimidine-5-carbonitrile] was 7.18; that for `CNc1nc(Nc2cnn(C3CCOCC3)c2Cl)ncc1C#N` [Example 383, 2-(5-chloro-1-(tetrahydro-2H-pyran-4-yl)-1H-pyrazol-4-ylamino)-4-(methylamino) pyrimidine-5-carbonitrile] was 8.02.

Still in this assay, the particulars now being: Table 10; LRRK2 Ki (micromolar); read-out: LRRK2 Ki (KI).
In the case of `CNC(=O)C(C)(C)n1cc(Nc2ncc(C(F)(F)F)c(NC3CC3)n2)c(C)n1` [Example 449, 2-[4-(4-Cyclopropylamino-5-trifluoromethyl-pyrimidin-2-ylamino)-3-methyl-pyrazol-1-yl]-N-methyl-isobutyramide], the pKi was 8.89. In the case of `CNc1nc(Nc2cn(C(C)(C)C(=O)OC)nc2C)ncc1C(F)(F)F` [Example 408, methyl 2-methyl-2-(3-methyl-4-(4-(methylamino)-5-(trifluoromethyl)pyrimidin-2-ylamino)-1H-pyrazol-1-yl)propanoate], the pKi is 8.33.

The assay is the same for the next values; noted with them: read-out: LRRK2 Ki (KI), Table 7.
In the case of `CNc1nc(Nc2cnn(CCN3CCOCC3)c2)ncc1C(F)(F)F` [Example 3, N^4-methyl-N^2-(1-(2-morpholinoethyl)-1H-pyrazol-4-yl)-5-(trifluoromethyl) pyrimidine-2,4-diamine], the pKi is 7.82. The same measure, in the same setting: the value for `COc1nc(Nc2cnn(-c3ccc(C(=O)N(C)C)cc3)c2C)ncc1Cl` [Example 82, 4-[4-(5-Chloro-4-methoxy-pyrimidin-2-ylamino)-5-methyl-pyrazol-1-yl]-N,N-dimethyl-benzamide] was 6.20.

Still in this assay, the particulars now being: read-out: LRRK2 Ki (KI), Table 8.
Regarding `CNc1nc(Nc2cn(C3CCN(CCOC)CC3)nc2C)ncc1C(F)(F)F` [Example 238, N2-(1-(1-(2-methoxyethyl)piperidin-4-yl)-3-methyl-1H-pyrazol-4-yl)-N4-methyl-5-(trifluoromethyl) pyrimidine-2,4-diamine], the pKi is 7.80. `CNc1nc(Nc2cnn(C)c2CF)ncc1C(F)(F)F` [Example 330, N2-(5-Fluoromethyl-1-methyl-1H-pyrazol-4-yl)-N4-methyl-5-trifluoromethyl-pyrimidine-2,4-diamine]: the pKi was 7.61.

Take `CNc1nc(Nc2cnn(C)c2C2CC2)ncc1C(F)(F)F` [Example 178, N2-(5-cyclopropyl-1-methyl-1H-pyrazol-4-yl)-N4-methyl-5-(trifluoromethyl) pyrimidine-2,4-diamine]: the pKi is 7.92. Take `CNc1nc(Nc2cnn(C3CCN(C)CC3)c2C)ncc1C(F)(F)F` [Example 210, N4-methyl-N2-(5-methyl-1-(1-methylpiperidin-4-yl)-1H-pyrazol-4-yl)-5-(trifluoromethyl) pyrimidine-2,4-diamine]: the pKi was 8.15. Regarding `CCNc1nc(Nc2cnn(C3CCN(CCOC)CC3)c2C)ncc1C(F)(F)F` [Example 283, N4-Ethyl-N2-{1-[1-(2-methoxy-ethyl)-piperidin-4-yl]-5-methyl-1H-pyrazol-4-yl}-5-trifluoromethyl-pyrimidine-2,4-diamine], the pKi is 8.70.

With `CNc1nc(Nc2cn(CCF)nc2C)ncc1C(F)(F)F` [Example 130, N2-(1-(2-fluoroethyl)-3-methyl-1H-pyrazol-4-yl)-N4-methyl-5-(trifluoromethyl) pyrimidine-2,4-diamine], the pKi was 8.96. On the same count and under the same terms, the value for `CCNc1nc(Nc2cnn(C3CCN(C(=O)C4CC4)CC3)c2C)ncc1C(F)(F)F` [Example 184, cyclopropyl(4-(4-(4-(ethylamino)-5-(trifluoromethyl)pyrimidin-2-ylamino)-5-methyl-1H-pyrazol-1-yl)piperidin-1-yl)methanone] was 8.33.

With `CCNc1nc(Nc2cn(-c3ccc(C(=O)N(C)C)cc3)nc2C)ncc1C(F)(F)F` [Example 263, 4-[4-(4-Ethylamino-5-trifluoromethyl-pyrimidin-2-ylamino)-3-methyl-pyrazol-1-yl]-N,N-dimethyl-benzamide], the pKi is 8.74.

Turning to `CCNc1nc(Nc2cn(C3COC3)nc2C)ncc1Cl` [Example 98, 5-chloro-N4-ethyl-N2-(3-methyl-1-(oxetan-3-yl)-1H-pyrazol-4-yl)pyrimidine-2,4-diamine], the negative-log Ki (pKi) is 8.51. On to `CCCn1ncc(Nc2ncc(C(F)(F)F)c(NC)n2)c1C` [Example 119, N4-methyl-N2-(5-methyl-1-propyl-1H-pyrazol-4-yl)-5-(trifluoromethyl) pyrimidine-2,4-diamine], for which the pKi was 8.25.

With `CNc1nc(Nc2cn(C3CCN(CCF)CC3)nc2C)ncc1C(F)(F)F` [Example 285, N2-{1-[1-(2-Fluoro-ethyl)-piperidin-4-yl]-3-methyl-1H-pyrazol-4-yl}-N4-methyl-5-trifluoromethyl-pyrimidine-2,4-diamine], the pKi is 7.55. On the same count and under the same terms, the value for `CNc1nc(Nc2cnn(C[C@H](C)OC)c2C)ncc1C(F)(F)F` [Example 187, (S)-N2-(1-(2-methoxypropyl)-5-methyl-1H-pyrazol-4-yl)-N4-methyl-5-(trifluoromethyl) pyrimidine-2,4-diamine] was 7.73; that for `CNc1nc(Nc2cn(C[C@H](C)OC)nc2C)ncc1C(F)(F)F` [Example 189, (S)-N2-(1-(2-methoxypropyl)-3-methyl-1H-pyrazol-4-yl)-N4-methyl-5-(trifluoromethyl) pyrimidine-2,4-diamine] was 7.93; that for `CNc1nc(Nc2cnn(CCF)c2C)ncc1C(F)(F)F` [Example 133, N2-(1-(2-fluoroethyl)-5-methyl-1H-pyrazol-4-yl)-N4-methyl-5-(trifluoromethyl) pyrimidine-2,4-diamine] was 8.74.

Consider `CNc1nc(Nc2cn(CC(C)(C)O)nc2C(F)(F)F)ncc1C(F)(F)F` [Example 198, 2-methyl-1-(4-(4-(methylamino)-5-(trifluoromethyl)pyrimidin-2-ylamino)-3-(trifluoromethyl)-1H-pyrazol-1-yl)propan-2-ol], for which the pKi is 7.57. Still for that read-out and setting: as for `CCNc1nc(Nc2ccnn2C)ncc1C(F)(F)F` [Example 176, N4-ethyl-N2-(1-methyl-1H-pyrazol-5-yl)-5-(trifluoromethyl) pyrimidine-2,4-diamine], the figure is 7.96. Regarding `CNc1nc(Nc2cn(CC(C)(C)O)nc2C)ncc1C(F)(F)F` [Example 250, 2-Methyl-1-[3-methyl-4-(4-methylamino-5-trifluoromethyl-pyrimidin-2-ylamino)-pyrazol-1-yl]-propan-2-ol], the pKi is 7.91. `CNc1nc(Nc2cn(C3CCC(=O)NC3)nc2C)ncc1C(F)(F)F` (centres unmarked) [Example 153, 5-(3-methyl-4-(4-(methylamino)-5-(trifluoromethyl)pyrimidin-2-ylamino)-1H-pyrazol-1-yl)piperidin-2-one]: the pKi was 8.01. Same read-out and setting: as for `CNc1nc(Nc2cn(C3CCCC3O)nc2C)ncc1C(F)(F)F` (centres unmarked) [Example 335, 2-[3-Methyl-4-(4-methylamino-5-trifluoromethyl-pyrimidin-2-ylamino)-pyrazol-1-yl]-cyclopentanol], the figure is 8.48.
